Experimental data published in patent publication EP1531159B1, “Peptide useful for diagnosis and therapy of tumors” (Deutsches Krebsforschungszentrum Stiftung des öffentlichen …, priority 2003, dated 2005).

Assays:
[1] = system: DU-145 prostate tumor cells; assay: Binding kinetics of 125I-DU-Sigi1 on DU-145 cells; set-up: species or system human
Method: The peptide DU-Sigi1 (FRPNRAQDYNTN) was prepared by chemical synthesis and labelled with ^125I. 200,000 DU-145 cells (human prostate tumor cell line) were seeded into 6-well plates and cultivated for 24 hours. Then, the medium was replaced by fresh medium (without FCS). ^125I-labelled peptide was added to the cell culture (1-2 mio cpm/well) and incubated for times from 1 min to 4 h. After the incubation time the cells were collected and washed for three times with 1 ml PBS per washing. Then, the cells were lysed with 0.3 M NaOH. Radioactivity of the lysed cells was determined with a gamma counter and radioactivity as percent applied dose per 1 million cells was calculated. It could be shown that the binding of DU-Sigi1 is rapid and the highest binding rate occurs after 5 min. Then the amount of bound peptide decreases and reaches a basal level of about 1.5 % applied dose/1 mio cells.

[2] = system: DU-145 prostate tumor cells; assay: Competition assay of 125I-DU-Sigi1 with unlabeled competitor on DU-145 cells; format: binding, human; details: for inhibition of binding of ^125I-DU-Sigi1: 10 min at 37°C
Method: The peptide DU-Sigi1 (FRPNRAQDYNTN) was prepared by chemical synthesis and labeled with ^125I. 200,000 DU-145 cells (human prostate tumor cell line) were seeded into 6-well plates and cultivated for 24 hours. Then, the medium was replaced by fresh medium (without FCS). Different competitor concentrations (unlabeled DU-Sigi1) were added to the medium 30 min before the ^125I-labeled peptide was added to the wells (1-2 mio cpm/well) and incubated for 10 min at 37°C.[…], After the incubation time the cells were collected and washed for three times with 1 ml PBS per washing. Then, the cells were lysed with 0.3 M NaOH. Radioactivity of the lysed cells was determined with a gamma counter and radioactivity as percent applied dose per 1 million cells was calculated. […] The ID50 is approx. 50 µM.

[3] = system: human prostate tumor (DU-145); assay: Organ distribution of intravenously injected 131I-labeled DU-Sigi1 in tumor-bearing mice; format: in vivo, male nu/nu mice; details: i.v., 28 mio cpm/mouse, 15 min and 45 min postinjection
Method: The peptide DU-Sigi1 (FRPNRAQDYNTN) was prepared by chemical synthesis and labeled with ^131I. ^131I labeled peptide DU-Sigi1 (FRPNRAQDYNTN) (28 mio cpm/mouse) was intravenously injected into male nu/nu mice, which subcutaneously carried a human prostate tumor (DU-145). 15 min. and 45 min, respectively, postinjection the mice were sacrificed. The organs were removed, weighed and the radioactivity was determined with a gamma counter. […] The high blood volumn might be due to the degradation of the peptide by serum peptidases and proteases.

[4] = system: PC-3 cells (prostate tumor cell line); assay: Competition assay of 125I-DU-Sigi1 with unlabeled DU-Sigi1 on PC-3 cells; format: binding, human; details: data not shown
[5] = system: PC-3 cells (prostate tumor cell line); assay: Binding kinetics of 125I-DU-Sigi1 on PC-3 cells; set-up: species or system human; details: data not shown
[6] = system: HUVEC, human primary endothelial cells; assay: Binding of 125I-DU-Sigi1 to primary endothelial cells; details: ^125I-labelled peptide, 1-2 mio cpm/well, 10 min incubation
Method: (§1) The peptide DU-Sigi1 (FRPNRAQDYNTN) was prepared by chemical synthesis and labelled with ^125I. For in vitro studies, 200,000 cells (DU-145, human prostate tumor cell line; PC-3, human prostate cell line; HUVEC, human primary endothelial cells, IMR5-75, human neuroblastoma cell line, MDA-MB-435, human breast cancer cell line, SW-1736, human thyroid cancer cell line, NPA-87, human thyroid cancer cell line) were seeded into 6-well plates and cultivated for 24 hours. Then, the medium was replaced by fresh medium (without FCS) and for the plates with competitor, unlabelled peptide was added (10^-4 M) and preincubated for 30 min. Then, ^125I-labelled peptide was added to the cell culture (1-2 mio cpm/well) and incubated for 10 min. The cells were collected and washed for three times with 1 ml PBS per washing. Then, the cells were lysed with 0.3 M NaOH. Radioactivity of the lysed cells was determined with a gamma counter and radioactivity as percent applied dose per 1 million cells was calculated.

[7] = system: human tumor cell lines (DU-145, PC-3, IMR5-75, MDA-MB-435, SW-1736, NPA-87); assay: Binding of 125I-DU-Sigi1 to human tumor cell lines
Method: as §1

Row | Substance | basal level of bound peptide ([1]; after the binding maximum, incubation up to 4 h) | time of highest binding rate ([1]; incubation times from 1 min to 4 h) [min] | ID50 ([2]; unlabeled DU-Sigi1 as competitor of ^125I-DU-Sigi1) | inhibition of binding of ^125I-DU-Sigi1 ([2]; unlabeled DU-Sigi1 concentration 10^-4, added 30 min before) | inhibition of binding of ^125I-DU-Sigi1 ([2]; unlabeled DU-Sigi1 concentration 10^-5, added 30 min before) | accumulation in tumor versus other organs [3] | competition compared with DU-145 cells [4] | binding kinetics compared with DU-145 cells [5] | binding of labelled peptide to primary endothelial cells [6] | binding of labelled peptide to tumor cells ([7]; ^125I-labelled peptide, 1-2 mio cpm/well, 10 min incubation) | competitive inhibition of binding ([7]; unlabelled peptide 10^-4 M, preincubated for 30 min) | competition with ^125I-DU-Sigi1 binding ([2]; unlabeled competitor, same concentration, data not shown)
1 | FRPNRAQDYNTN [DU-Sigi1] | about 1.5 % applied dose/1 mio cells | 5 | approx. 50 µM | more than 95% | more than 95% | accumulates in the tumor to a higher extent than in the other organs, with the exeption of the kidney | The same results were obtained | The same results were obtained | not the primary endothelial cells | specifically binds to the various tumor cells | up to 95% | 
2 | octreotide [reference compound] |  |  |  |  |  |  |  |  |  |  |  | No competition
